Reference: PubChem BioAssay AID2060496 (Molecular Pharmacology Branch, DTP, NCI, 2025)
pIC50: −log10 of the molar value.

Test system: 276233-004-R-J1-PDC complex spheroid viability
Assay: Anticancer human tumor 276233-004-R-J1-PDC patient-derived colon adenocarcinoma cell line growth inhibition [GQUAD]
Settings: for pIC50: curve of first compound; for viability, T/C: stronger effect = lower value
Outline: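 Multi-cell-type spheroids of tumor cells with HUVEC and mesenchymal stem cells, treated with drug combinations. Concentrations descend in half-log steps from near clinical Cmax, or from 10 microM where Cmax is unknown; viability read-out.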
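Further: spheroids exposed to drugs for seven days.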
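Wherever viability, T/C is given: 100% = DMSO vehicle control viability.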

Compound: C#Cc1c(F)ccc2cc(O)cc(-c3ncc4c(N5CC6CCC(C5)N6)nc(OCC56CCCN5CC(F)C6)nc4c3F)c12 (configuration not stated) + CN(C)c1ccc(Nc2c3ccc(NC(=O)CCN4CCCC4)cc3nc3cc(NC(=O)CCN4CCCC4)ccc23)cc1
- pIC50 (second compound 0.0316 µM): 5.48
- pIC50 (second compound 0.1 µM): 5.50
- pIC50 (second compound 0.316 µM): 5.89
- pIC50 (second compound 1 µM): 6.43
- pIC50 (second compound 3.16 µM): > 7.50
- pIC50 (second compound 10 µM): > 7.50
- viability, T/C (second compound 0.0316 µM, first compound 0.0316 µM): 90.1%
- viability, T/C (second compound 0.0316 µM, first compound 0.1 µM): 79%
- viability, T/C (second compound 0.0316 µM, first compound 0.316 µM): 101%
- viability, T/C (second compound 0.0316 µM, first compound 1 µM): 75.6%
- viability, T/C (second compound 0.0316 µM, first compound 3.16 µM): 52%
- viability, T/C (second compound 0.0316 µM, first compound 10 µM): 36.9%
- viability, T/C (second compound 0.1 µM, first compound 0.0316 µM): 78.7%
- viability, T/C (second compound 0.1 µM, first compound 0.1 µM): 74.2%
- viability, T/C (second compound 0.1 µM, first compound 0.316 µM): 56.4%
- viability, T/C (second compound 0.1 µM, first compound 1 µM): 56.8%
- viability, T/C (second compound 0.1 µM, first compound 3.16 µM): 54.8%
- viability, T/C (second compound 0.1 µM, first compound 10 µM): 42.2%
- viability, T/C (second compound 0.316 µM, first compound 0.0316 µM): 54.7%
- viability, T/C (second compound 0.316 µM, first compound 0.1 µM): 47.2%
- viability, T/C (second compound 0.316 µM, first compound 0.316 µM): 57.1%
- viability, T/C (second compound 0.316 µM, first compound 1 µM): 54.2%
- viability, T/C (second compound 0.316 µM, first compound 3.16 µM): 39%
- viability, T/C (second compound 0.316 µM, first compound 10 µM): 30.1%
- viability, T/C (second compound 1 µM, first compound 0.0316 µM): 65%
- viability, T/C (second compound 1 µM, first compound 0.1 µM): 54.8%
- viability, T/C (second compound 1 µM, first compound 0.316 µM): 54.9%
- viability, T/C (second compound 1 µM, first compound 1 µM): 40.4%
- viability, T/C (second compound 1 µM, first compound 3.16 µM): 49.1%
- viability, T/C (second compound 1 µM, first compound 10 µM): 42%
- viability, T/C (second compound 3.16 µM, first compound 0.0316 µM): 51.2%
- viability, T/C (second compound 3.16 µM, first compound 0.1 µM): 40%
- viability, T/C (second compound 3.16 µM, first compound 0.316 µM): 36.5%
- viability, T/C (second compound 3.16 µM, first compound 1 µM): 39.2%
- viability, T/C (second compound 3.16 µM, first compound 3.16 µM): 39.1%
- viability, T/C (second compound 3.16 µM, first compound 10 µM): 35.1%
- viability, T/C (second compound 10 µM, first compound 0.0316 µM): 43.6%
- viability, T/C (second compound 10 µM, first compound 0.1 µM): 43.7%
- viability, T/C (second compound 10 µM, first compound 0.316 µM): 40.2%
- viability, T/C (second compound 10 µM, first compound 1 µM): 40.7%
- viability, T/C (second compound 10 µM, first compound 3.16 µM): 36.6%
- viability, T/C (second compound 10 µM, first compound 10 µM): 27.4%
